Reference: PubChem BioAssay AID248 (DTP/NCI, 2004)
Where “and” joins values, the source holds several entries; their conditions need not be identical. Equal values may be shown once. Toxic doses and inconclusive results are not listed. Rule as the data show it: active = T/C of 150% or more; inactive = T/C below 125%.

System: L1210 leukemia ip in BDF1 mice, survival T/C
Assay: NCI In Vivo Anticancer Drug Screen. Data for tumor model L1210 Leukemia (intraperitoneal) in B6D2F1 (BDF1) mice
Details: endpoint: mean survival time, higher = longer survival
In short: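 Read-out is survival time, reported as the treated-group measurement over the vehicle-control measurement.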

[1] = dose: 100.0 mg/kg/injection, schedule: Q04DX003 (ip), vehicle: saline with Tween-80
[2] = dose: 200.0 mg/kg/injection, schedule: Q04DX003 (ip), vehicle: saline with Tween-80
[3] = dose: 400.0 mg/kg/injection, schedule: Q04DX003 (ip), vehicle: saline with Tween-80
[4] = dose: 50.0 mg/kg/injection, schedule: Q01DX009 (ip), vehicle: saline with Tween-80
[5] = dose: 100.0 mg/kg/injection, schedule: Q01DX009 (ip), vehicle: saline with Tween-80
[6] = dose: 100.0 mg/kg/injection, schedule: Q01DX001 (ip), vehicle: other
[7] = dose: 200.0 mg/kg/injection, schedule: Q01DX001 (ip), vehicle: other
[8] = dose: 100.0 mg/kg/injection, schedule: Q04DX003 (ip), vehicle: Klucel (hydroxypropylcellulose) (HPC)
[9] = dose: 200.0 mg/kg/injection, schedule: Q04DX003 (ip), vehicle: Klucel (hydroxypropylcellulose) (HPC)
[10] = dose: 400.0 mg/kg/injection, schedule: Q04DX003 (ip), vehicle: Klucel (hydroxypropylcellulose) (HPC)
[11] = dose: 100.0 mg/kg/injection, schedule: Q01DX009 (ip), vehicle: Klucel (hydroxypropylcellulose) (HPC)
[12] = dose: 200.0 mg/kg/injection, schedule: Q01DX009 (ip), vehicle: Klucel (hydroxypropylcellulose) (HPC)
[13] = dose: 400.0 mg/kg/injection, schedule: Q01DX009 (ip), vehicle: Klucel (hydroxypropylcellulose) (HPC)
[14] = dose: 100.0 mg/kg/injection, schedule: Q04DX002 (ip), vehicle: saline with Tween-80
[15] = dose: 200.0 mg/kg/injection, schedule: Q04DX002 (ip), vehicle: saline with Tween-80
[16] = dose: 400.0 mg/kg/injection, schedule: Q04DX002 (ip), vehicle: saline with Tween-80

Measured: T/C

NC(=O)c1ccc(NC(=O)/C=C/C(=O)Nc2ccc(C(N)=O)cn2)nc1
inactive: dose: 1.0 mg/kg/injection, schedule: Q01DX001 (ip), vehicle: saline 100 % of control | dose: 1.0 mg/kg/injection, schedule: Q01DX Z (ip), vehicle: saline 101 % of control and 105 % of control and 113 % of control | dose: 2.0 mg/kg/injection, schedule: Q01DX001 (ip), vehicle: saline 100 % of control | dose: 2.0 mg/kg/injection, schedule: Q01DX Z (ip), vehicle: saline 87 % of control | dose: 4.0 mg/kg/injection, schedule: Q01DX001 (ip), vehicle: saline 100 % of control | dose: 4.0 mg/kg/injection, schedule: Q01DX Z (ip), vehicle: saline 99 % of control | dose: 5.0 mg/kg/injection, schedule: Q01DX001 (ip), vehicle: saline 107 % of control | dose: 5.0 mg/kg/injection, schedule: Q04DX003 (ip), vehicle: saline 107 % of control | dose: 8.0 mg/kg/injection, schedule: Q01DX001 (ip), vehicle: saline 102 % of control | dose: 8.0 mg/kg/injection, schedule: Q01DX Z (ip), vehicle: saline 107 % of control and 91 % of control | dose: 10.0 mg/kg/injection, schedule: Q01DX001 (ip), vehicle: saline 98 % of control | dose: 11.25 mg/kg/injection, schedule: Q01DX009 (ip), vehicle: saline 93 % of control | dose: 13.0 mg/kg/injection, schedule: Q04DX003 (ip), vehicle: acetone 104 % of control | dose: 13.0 mg/kg/injection, schedule: Q04DX003 (ip), vehicle: saline 109 % of control | dose: 20.0 mg/kg/injection, schedule: Q01DX001 (ip), vehicle: saline 104 % of control | dose: 20.0 mg/kg/injection, schedule: Q04DX003 (ip), vehicle: acetone 109 % of control | dose: 20.0 mg/kg/injection, schedule: Q04DX003 (ip), vehicle: saline 109 % of control | dose: 30.0 mg/kg/injection, schedule: Q04DX003 (ip), vehicle: acetone 98 % of control | dose: 30.0 mg/kg/injection, schedule: Q04DX003 (ip), vehicle: saline 109 % of control | dose: 45.0 mg/kg/injection, schedule: Q04DX003 (ip), vehicle: saline 88 % of control

O=C(c1ccccc1)c1ccc(C(=O)c2ccccc2)c2c1C(=O)c1ccccc1C2=O
inactive: [1] 92 % of control | [2] 95 % of control | [3] 98 % of control

CC(C)(CCCO)c1ccccc1
inactive: [4] 96 % of control | [5] 104 % of control

Oc1cccc2cccnc12.[Cu+].[O-]c1cccc2cccnc12
inactive: dose: 2.5 mg/kg/injection, schedule: Q01DX009 (ip), vehicle: saline 97 % of control | dose: 2.5 mg/kg/injection, schedule: Q04DX003 (ip), vehicle: alcohol 98 % of control | dose: 5.0 mg/kg/injection, schedule: Q01DX009 (ip), vehicle: saline 108 % of control | dose: 5.0 mg/kg/injection, schedule: Q04DX003 (ip), vehicle: alcohol 112 % of control | dose: 10.0 mg/kg/injection, schedule: Q01DX009 (ip), vehicle: saline 98 % of control | dose: 10.0 mg/kg/injection, schedule: Q04DX003 (ip), vehicle: alcohol 104 % of control

CCOC(=O)COc1ccc2c(C)c(CCN(CC)CC)c(=O)oc2c1
inactive: dose: 100.0 mg/kg/injection, schedule: Q01DX001 (ip), vehicle: saline 103 % of control | dose: 200.0 mg/kg/injection, schedule: Q01DX001 (ip), vehicle: saline 92 % of control | dose: 400.0 mg/kg/injection, schedule: Q01DX001 (ip), vehicle: saline 96 % of control

CC(Oc1ccccc1)C(=O)NC(=S)Nc1cc(Cl)ccc1Cl (centres undefined)
inactive: [6] 93 % of control | dose: 100.0 mg/kg/injection, schedule: Q01DX009 (ip), vehicle: other 94 % of control and 89 % of control | dose: 100.0 mg/kg/injection, schedule: Q04DX002 (ip), vehicle: other 119 % of control and 90 % of control | [7] 88 % of control | dose: 200.0 mg/kg/injection, schedule: Q01DX009 (ip), vehicle: other 96 % of control and 89 % of control | dose: 200.0 mg/kg/injection, schedule: Q04DX002 (ip), vehicle: other 94 % of control and 102 % of control | dose: 400.0 mg/kg/injection, schedule: Q01DX009 (ip), vehicle: other 88 % of control | dose: 400.0 mg/kg/injection, schedule: Q04DX002 (ip), vehicle: other 102 % of control

O=C(O)CCC(=O)Nc1ccc2c(c1)B(O)OC2
inactive: dose: 50.0 mg/kg/injection, schedule: Q04DX003 (ip), vehicle: Klucel (hydroxypropylcellulose) (HPC) 101 % of control | [8] 96 % of control and 90 % of control | [9] 96 % of control | [10] 88 % of control

COc1ccc(/C=N/NC(=O)c2ccc(Cl)cc2Cl)cc1OC
inactive: [4] 103 % of control | [5] 88 % of control | dose: 200.0 mg/kg/injection, schedule: Q01DX009 (ip), vehicle: saline with Tween-80 92 % of control

c1ccc2c(c1)N=C1CCCC3CCCC123 (centres undefined)
inactive: dose: 100.0 mg/kg/injection, schedule: Q## X003 (ip), vehicle: saline 98 % of control | dose: 200.0 mg/kg/injection, schedule: Q## X003 (ip), vehicle: saline 104 % of control | dose: 400.0 mg/kg/injection, schedule: Q## X003 (ip), vehicle: saline 96 % of control

O=C(/C=C/c1ccccc1)Nc1cc(Cl)ccc1Cl
inactive: [11] 110 % of control | [8] 97 % of control | [12] 114 % of control | [9] 89 % of control | [13] 96 % of control | [10] 94 % of control

O=C(/C=C/c1ccccc1)NC(=S)Nc1ccccc1C(F)(F)F
inactive: dose: 12.5 mg/kg/injection, schedule: Q01DX009 (ip), vehicle: saline with Tween-80 93 % of control and 100 % of control | dose: 100.0 mg/kg/injection, schedule: Q01DX001 (ip), vehicle: saline with Tween-80 92 % of control | [14] 91 % of control | [1] 103 % of control | dose: 200.0 mg/kg/injection, schedule: Q01DX001 (ip), vehicle: saline with Tween-80 97 % of control | [15] 95 % of control and 101 % of control | [2] 91 % of control | dose: 400.0 mg/kg/injection, schedule: Q01DX001 (ip), vehicle: saline with Tween-80 112 % of control | dose: 400.0 mg/kg/injection, schedule: Q01DX009 (ip), vehicle: saline with Tween-80 86 % of control | [16] 93 % of control and 95 % of control | [3] 91 % of control

CCNP(=S)(SCC)SCC
inactive: [14] 96 % of control | [15] 89 % of control | [16] 101 % of control

CC(C)=CCN(CC=C(C)C)CCC(C#N)(CCN(CC=C(C)C)CC=C(C)C)c1cccc2ccccc12
inactive: [11] 86 % of control

Cc1ccc(NC(=O)c2ccccc2Cl)cc1Cl
inactive: dose: 25.0 mg/kg/injection, schedule: Q04DX004 (ip), vehicle: Klucel (hydroxypropylcellulose) (HPC) 89 % of control | dose: 50.0 mg/kg/injection, schedule: Q04DX004 (ip), vehicle: Klucel (hydroxypropylcellulose) (HPC) 98 % of control | [11] 96 % of control | dose: 100.0 mg/kg/injection, schedule: Q01DX009 (ip), vehicle: saline 110 % of control | [8] 95 % of control | dose: 100.0 mg/kg/injection, schedule: Q04DX003 (ip), vehicle: saline 120 % of control | dose: 100.0 mg/kg/injection, schedule: Q04DX004 (ip), vehicle: Klucel (hydroxypropylcellulose) (HPC) 88 % of control | dose: 135.0 mg/kg/injection, schedule: Q04DX004 (ip), vehicle: Klucel (hydroxypropylcellulose) (HPC) 96 % of control | [12] 94 % of control | dose: 200.0 mg/kg/injection, schedule: Q01DX009 (ip), vehicle: saline 102 % of control | [9] 95 % of control | [13] 98 % of control | dose: 400.0 mg/kg/injection, schedule: Q01DX009 (ip), vehicle: saline 102 % of control | [10] 96 % of control | dose: 400.0 mg/kg/injection, schedule: Q04DX003 (ip), vehicle: saline 115 % of control

CCOC(=O)Nc1cccc(OC(=O)NC)c1
inactive: [1] 100 % of control | [2] 107 % of control | [3] 89 % of control
